Reference: PMC6627609, “Targeting Quorum Sensing: High-Throughput Screening to Identify Novel LsrK Inhibitors” (International Journal of Molecular Sciences, 2019)
Where a name gives a salt, the structure may show the parent alone.

What follows are molecules tested against LsrK (Salmonella typhimurium, UniProt Q8ZKQ6) (assay: biochemical). Conditions: not given.
Sequence of LsrK (Q8ZKQ6 whole entry): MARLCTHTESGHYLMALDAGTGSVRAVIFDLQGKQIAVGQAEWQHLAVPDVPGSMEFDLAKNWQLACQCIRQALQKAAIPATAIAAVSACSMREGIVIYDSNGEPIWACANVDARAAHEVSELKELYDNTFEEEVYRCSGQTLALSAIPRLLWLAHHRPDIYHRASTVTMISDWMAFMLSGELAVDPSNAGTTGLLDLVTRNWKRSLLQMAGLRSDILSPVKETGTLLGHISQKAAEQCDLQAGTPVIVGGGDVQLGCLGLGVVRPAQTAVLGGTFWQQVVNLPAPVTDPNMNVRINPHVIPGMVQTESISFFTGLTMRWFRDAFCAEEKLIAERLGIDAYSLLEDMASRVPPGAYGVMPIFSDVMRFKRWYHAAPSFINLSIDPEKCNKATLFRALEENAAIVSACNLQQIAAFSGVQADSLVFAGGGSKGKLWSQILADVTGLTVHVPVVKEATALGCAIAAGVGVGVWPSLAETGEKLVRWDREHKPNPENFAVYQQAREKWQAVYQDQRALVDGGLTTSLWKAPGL
Type: biochemical, S. typhimurium
In the case of `O=C(O)[C@]1(O)C[C@@H](O)[C@@H](O)[C@H](O)C1` [QUINIC ACID], the inhibition at 50 µM is reported as 0%. Molecule `C=C[C@H]1CN2CC[C@H]1C[C@H]2[C@H](OC(=O)OCC)c1ccnc2ccc(OC)cc12` [QUININE ETHYL CARBONATE] has an inhibition at 50 µM of 3%. Work on `COCCCOc1ccnc(C[S+]([O-])c2nc3ccccc3[nH]2)c1C` (centres unmarked) [RABEPRAZOLE SODIUM] yielded an inhibition at 50 µM of 0%. Work on `O=C(c1ccc(OCCN2CCCCC2)cc1)c1c(-c2ccc(O)cc2)sc2cc(O)ccc12` [RALOXIFENE HYDROCHLORIDE] yielded an inhibition at 50 µM of 0%. Molecule `CNC(=C[N+](=O)[O-])NCCSCc1ccc(CN(C)C)o1` [RANITIDINE] has an inhibition at 50 µM of 1%. For `COC(=O)[C@H]1[C@H]2C[C@@H]3c4[nH]c5cc(OC)ccc5c4CCN3C[C@H]2C[C@@H](OC(=O)c2cc(OC)c(OC)c(OC)c2)[C@@H]1OC` [RESERPINE], the inhibition at 50 µM was 1%. In the case of `CC(=O)Oc1cccc(O)c1` [RESORCINOL MONOACETATE], the inhibition at 50 µM is reported as 1%. For `COc1ccc(/C=C/c2cc(O)cc(O)c2)cc1` [RESVERATROL 4'-METHYL ETHER], the inhibition at 50 µM was 2%. Molecule `CC1=C(/C=C/C(C)=C/C=C/C(C)=C/CO)C(C)(C)CCC1` [RETINOL] has an inhibition at 50 µM of 0%. For `CCCCCCCCCCCCCCCC(=O)OC/C=C(C)/C=C/C=C(C)/C=C/C1=C(C)CCCC1(C)C` [RETINYL PALMITATE], the inhibition at 50 µM was 15%. In the case of `C[C@@H]1O[C@@H](O[C@H]2[C@H](Oc3cc(O)c4c(=O)cc(-c5ccc(O)cc5)oc4c3)O[C@H](CO)[C@@H](O)[C@@H]2O)[C@H](O)[C@H](O)[C@H]1O` [RHOIFOLIN], the inhibition at 50 µM is reported as 2%. In the case of `COC1=C(O)C(=O)c2c(cc3oc(C(C)=O)c(O)c3c2O)C1=O` [RHO[…]], the inhibition at 50 µM is reported as 22%. Molecule `NC(=O)c1ncn([C@@H]2O[C@H](CO)[C@@H](O)[C@H]2O)n1` [RIBAVIRIN] has an inhibition at 50 µM of 5%. For `CO[C@H]1/C=C/O[C@@]2(C)Oc3c(C)c(O)c4c(O)c(c(/C=N/N5CCN(C)CC5)c(O)c4c3C2=O)NC(=O)/C(C)=C\C=C\[C@H](C)[C@H](O)[C@@H](C)[C@@H](O)[C@@H](C)[C@H](OC(C)=O)[C@@H]1C` [RIFAMPIN], the inhibition at 50 µM was 18%. Molecule `CO[C@H]1/C=C/O[C@@]2(C)Oc3c(C)c(O)c4c(O)c(c5c(nc6cc(C)ccn65)c4c3C2=O)NC(=O)/C(C)=C\C=C\[C@H](C)[C@H](O)[C@@H](C)[C@@H](O)[C@@H](C)[C@H](OC(C)=O)[C@@H]1C` [RIFAXIMIN] has an inhibition at 50 µM of 1%. `Cc1nc2sccn2c(=O)c1CCN1CCC(=C(c2ccc(F)cc2)c2ccc(F)cc2)CC1` [RITANSERIN] was tested, and the inhibition at 50 µM was 3%. Molecule `CN(C)CCc1c[nH]c2ccc(Cn3cncn3)cc12` [RIZATRIPTAN BENZOATE] has an inhibition at 50 µM of 1%. Work on `COc1ccc(-c2c(O)c3c(OC)c4c(cc3oc2=O)OC(C)(C)C=C4)cc1` [ROBUSTIC ACID] yielded an inhibition at 50 µM of 111%. `COc1ccc(C2CNC(=O)C2)cc1OC1CCCC1` (centres unmarked) [ROLIPRAM] was tested, and the inhibition at 50 µM was 1%. Molecule `CN(C)[C@@H]1C(O)=C(C(=O)NCN2CCCC2)C(=O)[C@@]2(O)C(O)=C3C(=O)c4c(O)cccc4[C@@](C)(O)[C@H]3C[C@@H]12` [ROLITETRACYCLINE] has an inhibition at 50 µM of 5%. `O=C(/C=C/c1ccc(O)c(O)c1)O[C@H](Cc1ccc(O)c(O)c1)C(=O)O` [ROSMARINIC ACID] was tested, and the inhibition at 50 µM was 2%. Work on `CC(C)c1nc(N(C)S(C)(=O)=O)nc(-c2ccc(F)cc2)c1/C=C/[C@@H](O)C[C@@H](O)CC(=O)O` [ROSUVASTATIN CALCIUM] yielded an inhibition at 50 µM of 1%. `CC[C@@H](C(=O)[C@@H](C)[C@@H](O)[C@H](C)[C@@H]1O[C@@H]([C@@H](CC)C(=O)O)CC[C@@H]1C)[C@H]1O[C@]2(C=C[C@@H](O)[C@]3(CC[C@@](C)([C@H]4CC[C@](O)(CC)[C@H](C)O4)O3)O2)[C@H](C)C[C@@H]1C` [SALINOMYCIN. SODIUM] gave an inhibition at 50 µM of 2%. Molecule `C[n+]1cc2c3c(ccc2c2ccc4cc5c(cc4c21)OCO5)OCO3` [SANGUINARINE SULFATE] has an inhibition at 50 µM of 84%. In the case of `COc1ccc2c(c1)OC/C(=C\c1ccc(OC)c(O)c1)C2=O` [SAPPANONE A DIMETHYL ETHER], the inhibition at 50 µM is reported as 2%. `O=C(O)c1cn(-c2ccc(F)cc2)c2cc(N3CCNCC3)c(F)cc2c1=O` [SARAFLOXACIN HYDROCHLORIDE] showed an inhibition at 50 µM of 0%. `COc1cc2ccc(=O)oc2cc1O` [SCOPOLETIN] showed an inhibition at 50 µM of 1%. For `CO[C@H]1C[C@H](O[C@@H]2/C(C)=C/C[C@@H]3C[C@@H](C[C@]4(CC[C@H](C)[C@@H](C5CCCCC5)O4)O3)OC(=O)[C@@H]3C=C(C)/C(=N/O)[C@H]4OC/C(=C\C=C\[C@@H]2C)[C@]43O)O[C@@H](C)[C@@H]1O` [SELAMECTIN], the inhibition at 50 µM was 0%. With `CC1CCC(NC(=O)N(CCCl)N=O)CC1` (centres unmarked) [SEMUSTINE] the inhibition at 50 µM was 0%. `O=C(O)c1cc(O)c2c(c1)[C@H]([C@H]1c3cc(C(=O)O)cc(O)c3C(=O)c3c(O[C@@H]4O[C@H](CO)[C@@H](O)[C@H](O)[C@H]4O)cccc31)c1cccc(O[C@@H]3O[C@H](CO)[C@@H](O)[C@H](O)[C@H]3O)c1C2=O` [SENNOSIDE A] gave an inhibition at 50 µM of 0%. For `O=C(O)C1=C[C@@H](O)[C@@H](O)[C@H](O)C1` [SHIKIMIC ACID], the inhibition at 50 µM was 1%. Molecule `COc1cc(C2Oc3cc([C@H]4Oc5cc(O)cc(O)c5C(=O)[C@@H]4O)ccc3OC2CO)ccc1O` (some centres unmarked) [SILIBININ] has an inhibition at 50 µM of 27%. Molecule `CCC(C)(C)C(=O)O[C@H]1C[C@@H](C)C=C2C=C[C@H](C)[C@H](CC[C@@H]3C[C@@H](O)CC(=O)O3)[C@H]21` [SIMVASTATIN] has an inhibition at 50 µM of 3%. `CO[C@H]1C[C@@H]2CC[C@@H](C)[C@@](O)(O2)C(=O)C(=O)N2CCCC[C@H]2C(=O)O[C@H]([C@H](C)C[C@@H]2CC[C@@H](O)[C@H](OC)C2)CC(=O)[C@H](C)/C=C(\C)[C@@H](O)[C@@H](OC)C(=O)[C@H](C)C[C@H](C)/C=C/C=C/C=C/1C` [SIROLIMUS] gave an inhibition at 50 µM of 4%. With `O=C(O)CCCO` [SODIUM OXYBATE] the inhibition at 50 µM was 1%. For `CCCCC(CC)CCC(CC(C)C)OS(=O)(=O)O` (centres unmarked) [SODIUM TETRADECYL SULFATE], the inhibition at 50 µM was 98%. In the case of `C[C@@H]1CC[C@@]2(NC1)O[C@H]1C[C@H]3[C@@H]4CC=C5C[C@@H](O)CC[C@]5(C)[C@H]4CC[C@]3(C)[C@H]1[C@@H]2C` [SOLASODINE], the inhibition at 50 µM is reported as 1%. For `NCCCNCCCCNCCCN` [SPERMINE], the inhibition at 50 µM was 2%. `COc1cc(C)c2c(c1C=O)Oc1c(c(C)c(O)c3c1C(O)OC3=O)OC2=O` (centres unmarked) [STICTIC ACID] was tested, and the IC50 was 3 µM and the inhibition at 50 µM was 119%. Work on `CC[C@H](/C=C/[C@@H](C)[C@H]1CC[C@H]2[C@@H]3CC=C4C[C@@H](O)CC[C@]4(C)[C@H]3CC[C@]12C)C(C)C` [STIGMASTEROL] yielded an inhibition at 50 µM of 1%. For `C[C@]12CC[C@H]3[C@@H](CC[C@]4(O)C[C@@H](O)CC[C@]34C=O)[C@@]1(O)CC[C@@H]2C1=CC(=O)OC1` [STROPHANTHIDIN], the inhibition at 50 µM was 0%. `OC[C@H]1O[C@H](O[C@]2(CCl)O[C@H](CCl)[C@@H](O)[C@@H]2O)[C@H](O)[C@@H](O)[C@H]1Cl` [SUCRALOSE] gave an inhibition at 50 µM of 3%. With `CC(=O)NS(=O)(=O)c1ccc(N)cc1` [SULFACETAMIDE] the inhibition at 50 µM was 0%. `COc1ncnc(NS(=O)(=O)c2ccc(N)cc2)c1OC` [SULFADOXINE] gave an inhibition at 50 µM of 1%. With `Cc1ccnc(NS(=O)(=O)c2ccc(N)cc2)n1` [SULFAMERAZINE] the inhibition at 50 µM was 2%. `Cc1nnc(NS(=O)(=O)c2ccc(N)cc2)s1` [SULFAMETHIZOLE] was tested, and the inhibition at 50 µM was 2%. `Cc1cc(NS(=O)(=O)c2ccc(N)cc2)no1` [SULFAMETHOXAZOLE] showed an inhibition at 50 µM of 1%. In the case of `Nc1ccc(S(=O)(=O)Nc2cnc3ccccc3n2)cc1` [SULFAQUINOXALINE SODIUM], the inhibition at 50 µM is reported as 1%. `O=C(O)c1cc(/N=N/c2ccc(S(=O)(=O)Nc3ccccn3)cc2)ccc1O` [SULFASALAZINE] showed an inhibition at 50 µM of 5%. `O=C1C(CC[S+]([O-])c2ccccc2)C(=O)N(c2ccccc2)N1c1ccccc1` (centres unmarked) [SULFINPYRAZONE] gave an inhibition at 50 µM of 129%. `CC(=O)N(c1onc(C)c1C)S(=O)(=O)c1ccc(N)cc1` [SULFISOXAZOLE ACETYL] showed an inhibition at 50 µM of 4%. For `Cc1noc(NS(=O)(=O)c2ccc(N)cc2)c1C` [SULFISOXAZOLE], the inhibition at 50 µM was 1%. `CCCCCCCCNC(C)C(O)c1ccc(SC(C)C)cc1` (centres unmarked) [SULOCTIDIL] gave an inhibition at 50 µM of 0%. In the case of `CCN1CCCC1CNC(=O)c1cc(S(N)(=O)=O)ccc1OC` (centres unmarked) [SULPIRIDE], the inhibition at 50 µM is reported as 83%. `Cc1ccc(C(=O)Nc2ccc(S(=O)(=O)O)c3cc(S(=O)(=O)O)cc(S(=O)(=O)O)c23)cc1NC(=O)c1cccc(NC(=O)Nc2cccc(C(=O)Nc3cc(C(=O)Nc4ccc(S(=O)(=O)O)c5cc(S(=O)(=O)O)cc(S(=O)(=O)O)c45)ccc3C)c2)c1` [SURAMIN] was tested, and the inhibition at 50 µM was 110%. With `CCCCC1(COC(=O)CCC(=O)O)C(=O)N(c2ccccc2)N(c2ccccc2)C1=O` [SUXIBUZONE] the inhibition at 50 µM was 8%. With `Cc1coc2c1C(=O)C(=O)c1c-2ccc2c1CCCC2(C)C` [TANSHINONE IIA] the inhibition at 50 µM was 50%. `CC[C@H]1OC(=O)[C@H](C)C(=O)[C@H](C)[C@@H](O[C@@H]2O[C@H](C)C[C@H](N(C)C)[C@H]2O)[C@](C)(OC)C[C@@H](C)C(=O)[C@H](C)[C@H]2N(CCCCn3cnc(-c4cccnc4)c3)C(=O)O[C@]12C` [TELITHROMYCIN] gave an inhibition at 50 µM of 7%.

Same assay, conditions: 50 µM
In the case of `C=C(C)CCCC(C)CCOC(C)=O` (centres unmarked) [RHODINYL ACETATE], the “Inhibition (%)” value is reported as 0. For `Cc1cc2nc3c(=O)[nH]c(=O)nc-3n(C[C@H](O)[C@H](O)[C@H](O)COP(=O)([O-])O)c2cc1C.[Na+]` [RIBOFLAVIN 5-PHOSPHATE SODIUM], the “Inhibition (%)” value was 1. `O=P([O-])(O)C(O)(Cc1cccnc1)P(=O)(O)O.[Na+]` [RISEDRONATE SODIUM HYDRATE] was tested, and the “Inhibition (%)” value was 2. In the case of `CC(C)CC(N(C)C)C1(c2ccc(Cl)cc2)CCC1.Cl` (centres unmarked) [SIBUTRAMINE HYDROCHLORIDE], the “Inhibition (%)” value is reported as 1. With `Cc1c[nH]c2ccccc12` [SKATOLE] the “Inhibition (%)” value was 1. For `CC(C)=CCC/C(C)=C/CC/C(C)=C/CC/C(C)=C/CC/C(C)=C/CC/C(C)=C/CC/C(C)=C/CC/C(C)=C/CC/C(C)=C/CO` [SOLANESOL], the “Inhibition (%)” value was 1. `CC1=CC(=O)[C@H]2C(C)(C)CCC[C@]2(C)[C@@]1(O)CCc1ccoc1` [SOLIDAGENONE] was tested, and the “Inhibition (%)” value was 0. For `C1CCN2C[C@@H]3C[C@@H](CN4CCCC[C@@H]34)[C@H]2C1.I` [SPARTEINE HYDROIODIDE], the “Inhibition (%)” value was 1. In the case of `Cc1c(S(=O)(=O)[O-])oc2c1C(=O)C(=O)c1c-2ccc2c1CCCC2(C)C.[Na+]` [TANSHINONE IIA SULFONATE SODIUM], the “Inhibition (%)” value is reported as 55.
